Reference: ChEMBL document CHEMBL3301361, “Experimental in vitro DMPK and physicochemical data on a set of publicly disclosed compounds”
In brackets after ≈: the same amount, converted by molar mass.

Experiments:
in vitro [1] = details: human
in vitro [2] = details: human, plasma
physchem [3] = details: octan-1-ol/water
in vitro [4] = details: SD, HW or BN, rat, plasma
physchem [5] = details: pH 7.4 buffer

Row | Structure (SMILES) | microsomal CLint (in vitro [1]; liver microsomes) | fraction unbound at 5 h (in vitro [2]; PPB) | logD (physchem [3]; pH 7.4, LogD7.4) | fraction unbound at 5 h (in vitro [4]) | also measured
1 | CCCCCCc1nc2c(N)nc3ccccc3c2n1Cc1ccccc1 | < 3 µL/min/mg | 0.0036 |  |  | 
2 | O=C(NC1CC1)c1cc(-c2cccs2)on1 | 38.9 µL/min/mg | 0.0768 | 2.54 |  | 
3 | Cc1ccc(-c2nnc(Nc3ccc(C(=O)N(C)C)cc3)c3ccccc23)cc1S(=O)(=O)N(C)C |  |  |  | 0.0209 | 
4 | COc1ccc(-c2nc(-c3ccccn3)no2)cc1 |  |  |  | 0.0544 | 
5 | O=C(NCCc1ccc(Cl)cc1)c1cccnc1 |  |  |  | 0.0854 | 
6 | CCCC(=O)Nc1ccc(Cl)c(-c2nc3ncccc3o2)c1 |  |  |  | 0.0358 | 
7 | COc1ccc(-c2ccc3nc(N)sc3c2)cn1 | 7.76 µL/min/mg | 0.0383 | 3.2 |  | 
8 | c1nc(Cc2ccsc2)c[nH]1 |  |  |  | 0.371 | 
9 | N#Cc1ccc(F)c(-c2cc(C(F)(F)F)ccc2OCC(=O)O)c1 |  | 0.0293 | -0.16 |  | microsomal CLint (in vitro [1]; microsomes): < 3 µL/min/mg
10 | COc1ccnc(CCc2nc3c(C)ccnc3[nH]2)c1 |  | 0.197 | 2.1 |  | microsomal CLint (in vitro [1]; microsomes): < 3 µL/min/mg
11 | CN(C)CCC1CCN(c2cc(C(=O)NC[C@H]3CC[C@H](COC(=O)NC(C)(C)C)CC3)c3ccccc3n2)CC1 |  |  |  | 0.0328 | 
12 | CC(C)(C)OC(=O)NC[C@H]1CC[C@H](CNC(=O)c2cc(-c3ccncc3)nc3ccccc23)CC1 |  |  |  | 0.02 | 
13 | CN(C)CCn1cc(-c2cc(C(=O)NC[C@H]3CC[C@H](CNC(=O)OC(C)(C)C)CC3)c3ccccc3n2)cn1 |  |  |  | 0.0647 | 
14 | CC(C)(C)OC(=O)NC[C@H]1CC[C@H](CNC(=O)c2cc(N3CCC(CCN)CC3)nc3ccccc23)CC1 |  |  |  | 0.0321 | 
15 | CN(C)CCOC1CN(c2cc(C(=O)NC[C@H]3CC[C@H](CNC(=O)OC(C)(C)C)CC3)c3ccccc3n2)C1 |  |  |  | 0.129 | 
16 | Cc1ccccc1Nc1nc(N)nc(C)c1Br |  |  |  | 0.0752 | 
17 | O=C(NCc1ccccc1Cl)c1cccnc1Oc1ccccc1 | 36 µL/min/mg | 0.134 | 3.68 |  | 
18 | COc1ccc(OC)c(CNC(=O)c2cccnc2Oc2ccccc2)c1 | 43.5 µL/min/mg | 0.002 | 3.52 |  | 
19 | Cc1ccc2c(c1)c(Sc1cccc(Cl)c1)c(C)n2CC(=O)O | 12 µL/min/mg | 0.0036 |  |  | 
20 | Cc1c(S(=O)(=O)c2ccc(Cl)cc2)c2cc(F)ccc2n1CC(=O)O | < 3 µL/min/mg | 0.0043 | -0.16 |  | 
21 | COc1cccc(S(=O)(=O)c2c(C)n(CC(=O)O)c3ccc(C)cc23)c1 | 3 µL/min/mg | 0.0063 | -0.42 |  | 
22 | CC(C(=O)O[C@@H]1CC[N+](C)(C)C1)(c1ccccc1)C1CCCC1 (some centres undefined) |  |  |  | 0.299 | 

Row | Structure (SMILES) | microsomal CLint (in vitro [1]; liver microsomes) | fraction unbound at 5 h (in vitro [2]; PPB) | logD (physchem [3]; pH 7.4, LogD7.4) | fraction unbound at 5 h (in vitro [4]) | also measured
23 | CC(=O)N1CCN(c2nc(NCC(C)c3ccc(Cl)cc3)c3c(n2)C(=O)N(C(C)C)C3)CC1 (centres undefined) |  |  |  | 0.142 | 
24 | CC(=O)N1CCN(c2nc(NCc3ccc(OC(F)(F)F)cc3)c3c(n2)C(=O)N(C(C)C)C3)CC1 |  |  |  | 0.151 | 
25 | CC(=O)N1CCN(c2nc3c(c(N(C)Cc4cc5ccccc5cn4)n2)CN(C(C)C)C3=O)CC1 |  |  |  | 0.339 | 
26 | Cc1cc([C@H](O)[C@](C)(OCc2ccc(-c3ccccc3)cc2)C(=O)NO)no1 | 15.8 µL/min/mg | 0.0328 | 2.88 |  | 
27 | CCNC(=O)Nc1sc2ccccc2c1C(=O)N1CCC(N2CCCC3(CCN(CC)C3=O)C2)CC1 (centres undefined) |  |  |  | 0.17 | 
28 | N=C(N)c1ccc2[nH]c(-c3n[nH]c(-c4ccccc4)c3O)nc2c1 |  |  |  | 0.119 | 
29 | Cc1ncc(-c2cccc3c2C[C@H](NC(=O)c2ccc(OCC(F)(F)F)nc2)CO3)cn1 |  |  |  | 0.0768 | 
30 | CC(C)C(NC(=O)c1cc(Cl)ccc1C(F)(F)F)C(=O)c1ccc([N+](=O)[O-])cc1 (centres undefined) |  |  |  | 0.024 | 
31 | OCCNC(=S)NCc1cccc(Cl)c1F |  |  |  | 0.16 | 
32 | Cc1ccc2c(c1)c(-c1ccnc3c(F)cccc13)c(C)n2CC(=O)O | < 3 µL/min/mg | 0.009 | 0.53 |  | 
33 | Cc1nccnc1-c1ccc(CC(=O)N[C@H](C)c2ccc(OCC(F)(F)F)cn2)cc1 |  |  |  | 0.17 | 
34 | Cc1cc(-n2cnc3ccc(N[C@@H](C)c4ncc(F)cn4)nc32)n[nH]1 |  |  |  | 0.483 | 
35 | O=C(NCc1ccc(OC(F)(F)F)cc1)C1c2ccccc2C(=O)N1CCc1ncccn1 (centres undefined) |  |  |  | 0.129 | 
36 | COc1ccccc1C(C#N)NC(=O)[C@@H]1CCCC[C@H]1C(=O)N1CCN(Cc2ccc(F)cc2)CC1 (some centres undefined) | 127 µL/min/mg | 0.051 | 3.57 |  | 
37 | O=C(NC[C@@H](O)CN1CCC(Oc2ccc(Cl)c(Cl)c2)CC1)c1cc(=O)[nH]c2ccccc12 | < 3 µL/min/mg | 0.0183 | 3.48 |  | solubility thermodynamic (physchem [5]): 15.8 µM (≈ 7.75 µg/mL)
38 | C[S+]([O-])Cc1ccc(C(=O)Nc2cccnc2C(=O)NCC2CCOCC2)c2ccccc12 (centres undefined) |  |  |  | 0.154 | 
39 | C[S+]([O-])Cc1ccc(C(=O)Nc2nccnc2C(=O)NCC2CCC2)c2ccccc12 (centres undefined) |  |  |  | 0.0988 | 
40 | O=C(NCC1CCC1)c1nc(OCCOCCO)ccc1NC(=O)c1ccnc2ccccc12 |  |  |  | 0.03 | 
41 | CS(=O)(=O)c1ccc(-c2nnc(/C=C/c3nnc(-c4ccc(C#N)cc4)o3)n2-c2ccccc2Cl)nc1 | < 3 µL/min/mg | 0.0633 | 2.66 |  | 
42 | C[C@@H](Oc1ccccc1-c1cccc([N+](=O)[O-])c1)C1=NCCN1 |  |  |  | 0.403 | 
43 | CC[C@H](CO)Nc1nc(SCc2ccccc2)nc2nc(N)sc12 | 8.71 µL/min/mg | 0.013 | 3.27 |  | 
44 | c1ccc(-c2[nH]nc3ccccc23)cc1 |  | 0.0307 | 3.79 |  | microsomal CLint (in vitro [1]; microsomes): < 3 µL/min/mg

Row | Structure (SMILES) | microsomal CLint (in vitro [1]; liver microsomes) | fraction unbound at 5 h (in vitro [2]; PPB) | logD (physchem [3]; pH 7.4, LogD7.4) | fraction unbound at 5 h (in vitro [4]) | also measured
45 | COc1ccc2c(c1)c(-c1ccnc3cc(Cl)ccc13)c(C)n2CC(=O)O | 4 µL/min/mg | 0.0031 | 1.16 |  | 
46 | O=C(NCC12CC3CC(CC(C3)C1)C2)c1cc(N2CCNCC2)ccc1Cl |  |  |  |  | microsomal CLint (in vitro [1]; microsomes): 11 µL/min/mg; logD (physchem [3]; pH 7.4): 1.77; fraction unbound at 5 h (in vitro [2]): 0.0268; solubility thermodynamic (physchem [5]): 224 µM (≈ 86.9 µg/mL)
47 | C[C@H](CO)Nc1nc(SCc2cccc(F)c2F)nc2nc(NC3CC3)sc12 | 66 µL/min/mg | 0.0122 | 4.37 |  | 
48 | O=C(O)CSCC(=O)Nc1nc(-c2ccccc2)cs1 | 17.8 µL/min/mg | 0.0097 |  |  | 
49 | CC(=O)N[C@@H](Cc1ccccc1)C(=O)N[C@H]1CCCNC(=O)[C@H](CCCNC(=N)N)NC(=O)[C@H](Cc2c[nH]c3ccccc23)NC(=O)[C@@H](CC2CCCCC2)NC(=O)[C@@H]2CCCN2C1=O |  |  |  | 0.163 | 
50 | OCC(CO)Nc1nc(SCc2cccc(F)c2F)nc2nc(NC3CC3)sc12 | 46 µL/min/mg | 0.051 | 3.11 |  | 
51 | Nc1nc2c(c(N3CC[C@@H](N)C3)n1)CCCc1ccccc1-2 |  |  |  | 0.437 | 
52 | O=C1Nc2nc(-c3c(O)cccc3OCC3CC3)cc([C@@H]3CCCNC3)c2CO1 |  |  |  | 0.124 | 
53 | COc1cc(C(C)C)c(Oc2cnc(N)nc2N)cc1I |  |  |  | 0.0383 | 
54 | O=C(CC12CC3CC(CC(C3)C1)C2)Nc1cccc2c(=O)n(C[C@H]3CCCN3)ccc12 |  |  |  | 0.151 | 
55 | Cc1nc(C(F)(F)F)ccc1C(=O)Nc1ccc(Cl)c(-c2nc3ccccc3[nH]2)c1 |  |  |  | 0.0948 | 
56 | N#CN=C(N)c1sc(Nc2ccccc2)nc1N | < 3 µL/min/mg | 0.103 | 2.91 |  | 
57 | CC1=C(CC(=O)NCc2ccc(C(=N)N)cc2)C(=O)N(NS(=O)(=O)c2c(C)cccc2Cl)CC1 |  |  |  | 0.54 | 
58 | N=C(N)c1cc2c(-c3ccccc3)cccc2s1 | 5 µL/min/mg | 0.101 | 1.27 |  | 
59 | N#CC1=C2C(=NC1=O)c1cccc3c(N4CCSCC4)ccc2c13 | 115 µL/min/mg | 0.0139 | 3.22 |  | 
60 | CN1CCC[C@@H]1Cc1c[nH]c2ccc(Nc3ncccc3[N+](=O)[O-])cc12 |  |  |  | 0.387 | 
61 | CC(C)NC(=O)c1ccc2c(Nc3ccc(Cl)cc3)nc(N3CCOCC3)nc2c1 | < 3 µL/min/mg | 0.0051 | 2.78 |  | 
62 | C[C@@H]1CN(Cc2ccc(F)cc2)CCN1C(=O)COc1ccc(Cl)cc1NC(N)=O [BX 471 FREE BASE] | 21 µL/min/mg |  |  |  | fraction unbound at 5 h (in vitro [2]): 0.0205
63 | CNCCC(Oc1ccccc1OC)c1ccccc1 (centres undefined) [NISOXETINE] | < 3 µL/min/mg | 0.483 | 0.22 |  | 
64 | COc1cc(NC(C)CCCN)c2ncccc2c1 (centres undefined) [PRIMAQUINE] | < 3 µL/min/mg | 0.403 |  |  | 
